# Several values for one entry are separate records, joined by “and”; a condition that tells them apart may be missing. Equal values may be shown once.
# Key:
# [1] = Thorough QT (TQT) study: QTc, cardiac conduction and adverse events; conditions: Moxifloxacin 400 mg oral (control)
# Description: A TQT study was also conducted. The TQT study was a double-blind, randomized, placebo-controlled, 4-period, single-dose, crossover design in 52 healthy male and female subjects.
# [2] = Thorough QT (TQT) study: secnidazole pharmacokinetics by gender; format: in vivo, human
# Description: A TQT study was also conducted. […] A total of 50 subjects (29 males and 21 females) were included in the PK population. Noncompartmental PK parameters for these subjects are summarized by gender in Table 15 below.
# [3] = Phase I study of SYM-1219 4 grams or 6 grams: secnidazole plasma concentrations; format: in vivo, human
# Description: Additionally, a Phase I, randomized, placebo-controlled, single-blind, two-group study, which assessed the safety, tolerability, and PK of single oral doses of SYM-1219 granules containing either 4 grams or 6 grams of secnidazole administered in approximately 8 ounces of applesauce to 16 healthy male and female subjects, was conducted to determine the supratherapeutic dose for a potential Thorough QT (“TQT”) study. Subjects were randomized 3:1, such that a total of 12 subjects received secnidazole and 4 subjects received placebo. 3 male and 3 female subjects were treated at each secnidazole dose level (i.e., 4 grams or 6 grams). Blood samples for PK assessments were collected at the following timepoints: 30 minutes prior to dosing and 3 hours, 6 hours, 8 hours and 24 hours post dose. Plasma concentrations were summarized by timepoint using descriptive statistics; noncompartmental PK parameters were not calculated.
# Eligible subject were admitted to the clinical site on Day −1 and were discharged following a safety evaluation on Day 2; the in-house period was approximately 2 days. Randomization occurred after the assessments of Day −1 determined that subjects remained eligible for the study. All subject were asked to return on Day 7+/2 days for a final study visit. The maximum study duration was approximately 4 weeks to 5 weeks (including the study screening period).
# Group A received a single oral dose of SYM-1219 microgranules, containing 4 grams of secnidazole (N=6) (2 packets of SYM-1219 microgranules, 2 grams of secnidazole/packet), or a placebo (N=2) (2 packets of placebo) in approximately 8 oz. of applesauce. […]
# Blood samples for PK analysis were collected: 30 minutes prior to dosing and 3 hours, 6 hours, 8 hours and 24 hours postdose. […] Plasma secnidazole concentrations were determined by Celerion, Inc., using validated analytical procedures. […]
# [4] = men, published studies; cited from earlier work
# [5] = Phase 3 study: treatment-emergent adverse events (safety population); format: in vivo, human; conditions: 2 grams, safety population (N = 74), TEAEs in primary phase
# Description: Safety analyses, including the evaluation of adverse events, physical examinations, pelvic examinations, collection of vital signs (blood pressure, temperature, and pulse), and clinical laboratory assessments (serum chemistry, hematology, and urinalysis) was conducted at all study visits. Adverse event information was also collected on the phone call between study V2 and V3.
# [6] = tested on: clinical isolates of T. vaginalis; experiment: Susceptibility testing, minimal lethal concentration (MLC), aerobic; format: cell-based, Trichomonas vaginalis; conditions: for MLC, mean (±SD) among all isolates / MLC, median: aerobic, 46-50 h; for MLC in the one isolate with a higher MLC for secnidazole than for metronidazole: single clinical isolate
# Description: Susceptibility testing was conducted with one hundred (100) clinical isolates of T. vaginalis.
# Archived, de-identified, clinical isolates of T. vaginalis that were banked in liquid nitrogen were used for this study. The samples had been collected between July 2015 and June 2017, in accordance with institutional review board guidelines, and all patients had consented to the storage and use of their samples for subsequent testing. […] In brief, trichomonads were grown in Diamond's medium 1025 (containing trypticase soy broth, yeast extract, maltose, and calf serum) adjusted to pH 5.9 and supplemented with streptomycin at 1 g/liter and penicillin G at 100 U/ml. A hemocytometer was used to count the trichomonad population and to adjust it to a concentration of 66,666 cells/ml. Isolates were tested in microtiter plates under aerobic conditions. […] Plates were then incubated at 37° C. for 46 hours to 50 hours and read with a Zeiss Axiovert inverted microscope. The concentration of drug in the microplate wells in which no motile trichomonads were observed was reported as the MLC. […] Low-level resistance was defined as an aerobic MLC of 50 μg/ml to 100 μg/ml, moderate-level resistance as an aerobic MLC of 200 μg/ml, and high-level resistance as an aerobic MLC of >400 μg/ml. The MLCs for metronidazole and secnidazole were analyzed using the Wilcoxon signed-rank test to evaluate the differences between treatments.
# Each well of a 96-well plate was filled with 150 μL of T. vaginalis suspension in Diamond's growth media (10^4 trichomonads). […] Cultures were visually assessed for survival, defined by observation of motility, through a 100× inverted microscope.
# [7] = CDC 2015 Guidelines - Trichomoniasis; cited from earlier work
# T. vaginalis = conditions: cited from earlier work
# [8] = 100 clinical T. vaginalis isolates
# [9] = 100 clinical T. vaginalis isolates, listed as secnidazole
# [10] = meta-analysis of six published studies
compound,measurement,setting,value
COc1c(N2C[C@@H]3CCCN[C@@H]3C2)c(F)cc2c(=O)c(C(=O)O)cn(C3CC3)c12 [Moxifloxacin],Overall incidence rate of TEAEs,[1],4.3%
"Cc1ncc([N+](=O)[O-])n1CC(C)O (centres unmarked) [Secnidazole, 1-(2-hydroxypropyl)-2-methyl-5-nitromidazole]",Plasma concentrations and exposures in males versus females,[2]; 2 and 6 grams,slightly lower
same,"Secnidazole exposure over the 24-hour sampling period, fold lower in male vs female subjects",[2]; Phase I study concentration-by-time data or TQT study mean PK parameters,approximately 1.5 fold
same,Variability in plasma concentrations,"[2]; across the sampling times, 2 and 6 grams",21% to 57%
same,Dose proportionality of plasma concentrations,[2]; from 2 grams to 6 grams of secnidazole,essentially dose-proportional
same,Time postdose up to which concentrations greater than the median MLC are maintained,[2]; men,at least 96 hours
same,Plasma concentrations and exposures in males versus females,[3]; 4 and 6 grams,slightly lower
same,Variability in plasma concentrations,"[3]; across the limited sampling times, 4 and 6 grams",4% to 29%
same,Dose proportionality of plasma concentrations,[3]; from 4 grams to 6 grams of secnidazole,essentially dose-proportional
same,Mean dose-normalized (to 2 grams) concentrations at 96 hours,[4],approximately 2 μg/mL
same,Abdominal pain: Events n,[5],1
same,Abdominal pain: Patients n (%),[5],1 (1.4%)
same,"Any Adverse Event, Overall: Events n",[5],13
same,"Any Adverse Event, Overall: Patients n (%)",[5],11 (14.9%)
same,Back pain: Events n,[5],0
same,Back pain: Patients n (%),[5],0%
same,Diarrhea: Events n,[5],1
same,Diarrhea: Patients n (%),[5],1 (1.4%)
same,Dysmenorrhoea: Events n,[5],0
same,Dysmenorrhoea: Patients n (%),[5],0%
same,"Gastrointestinal disorders, Overall: Events n",[5],5
same,"Gastrointestinal disorders, Overall: Patients n (%)",[5],4 (5.4%)
same,"General disorders and administration site conditions, Overall: Events n",[5],0
same,"General disorders and administration site conditions, Overall: Patients n (%)",[5],0%
same,Headache: Events n,[5],1
same,Headache: Patients n (%),[5],1 (1.4%)
same,"Infections and infestations, Overall: Events n",[5],3
same,"Infections and infestations, Overall: Patients n (%)",[5],3 (4.1%)
same,Menstruation irregular: Events n,[5],0
same,Menstruation irregular: Patients n (%),[5],0%
same,"Musculoskeletal and connective tissue disorders, Overall: Events n",[5],1
same,"Musculoskeletal and connective tissue disorders, Overall: Patients n (%)",[5],1 (1.4%)
same,Myalgia: Events n,[5],1
same,Myalgia: Patients n (%),[5],1 (1.4%)
same,Nausea: Events n,[5],2
same,Nausea: Patients n (%),[5],2 (2.7%)
same,"Nervous system disorders, Overall: Events n",[5],1
same,"Nervous system disorders, Overall: Patients n (%)",[5],1 (1.4%)
same,Productive cough: Events n,[5],1
same,Productive cough: Patients n (%),[5],1 (1.4%)
same,Pruritus: Events n,[5],0
same,Pruritus: Patients n (%),[5],0%
same,"Reproductive system and breast disorders, Overall: Events n",[5],1
same,"Reproductive system and breast disorders, Overall: Patients n (%)",[5],1 (1.4%)
same,"Respiratory, thoracic and mediastinal disorders, Overall: Events n",[5],2
same,"Respiratory, thoracic and mediastinal disorders, Overall: Patients n (%)",[5],2 (2.7%)
same,"Skin and subcutaneous tissue disorders, Overall: Events n",[5],0
same,"Skin and subcutaneous tissue disorders, Overall: Patients n (%)",[5],0%
same,Thirst: Events n,[5],0
same,Thirst: Patients n (%),[5],0%
same,Trichomoniasis (adverse event): Events n,[5],0
same,Trichomoniasis (adverse event): Patients n (%),[5],0%
same,Upper-airway cough syndrome: Events n,[5],1
same,Upper-airway cough syndrome: Patients n (%),[5],1 (1.4%)
same,Vomiting: Events n,[5],1
same,Vomiting: Patients n (%),[5],1 (1.4%)
same,Vulvovaginal candidiasis: Events n,[5],2
same,Vulvovaginal candidiasis: Patients n (%),[5],2 (2.7%)
same,Vulvovaginal mycotic infection: Events n,[5],1
same,Vulvovaginal mycotic infection: Patients n (%),[5],1 (1.4%)
same,Vulvovaginal pruritus: Events n,[5],1
same,Vulvovaginal pruritus: Patients n (%),[5],1 (1.4%)
same,In vitro efficacy in comparison with metronidazole,[6]; [8],superior efficacy in vitro
same,Isolates demonstrating moderate- or high-level resistance,[6]; [8],none of the isolates
same,Isolates with a lower MLC for secnidazole than for metronidazole,[6]; [8],96%
same,Prevalence of low-level resistance (aerobic MLC 50 μg/ml to 100 μg/ml),[6]; [8],Four
same,"MLC, mean (±SD) among all isolates",[6]; [8],Mean: 5.9 μg/mL
same,"MLC, median",[6]; [8],Median: 1.6 μg/mL
same,"MLC, mean (±SD) among all isolates",[6]; [9],5.9 ± 13.2 µg/mL and 5.9 µg/mL
same,"MLC, median",[6]; [9],1.6 µg/mL
same,Response of control isolates with established high-level resistance to metronidazole,[6]; control isolates,responded to significantly lower levels of secnidazole
same,MLC in the one isolate with a higher MLC for secnidazole than for metronidazole,[6],3.1 µg/mL
Cc1ncc([N+](=O)[O-])n1CCO [metronidazole],Half-life,[7],7.3 h
same,Isolates exhibiting moderate resistance (aerobic MLC 200 μg/ml),[6]; [8],1%
same,Prevalence of low-level resistance (aerobic MLC 50 μg/ml to 100 μg/ml),[6]; [8],7%
same,"MLC, mean (±SD) among all isolates",[6]; [8],13.5 ± 26.9 µg/mL
same,"MLC, median",[6]; [8],6.3 µg/mL
same,MLC in the one isolate with a higher MLC for secnidazole than for metronidazole,[6],1.6 µg/mL
same,Cure rates in randomized clinical trials of recommended regimens,T. vaginalis; CDC 2015 Guidelines - Trichomoniasis,84%-98%
same,Cure rate for single dose treatment,T. vaginalis; HIV-positive women with trichomoniasis (Kissinger 2010),83.2%
same,Increase in treatment failures with single-dose 2-gram vs 7-day dose (500 mg twice daily),"T. vaginalis; HIV-uninfected, non-pregnant women, 2018 comparison study",45%
same,Fewer treatment failures with 7 day-dose compared to single-dose,T. vaginalis; [10],46%
same,Test of cure (TOC) positive rates after single-dose,T. vaginalis; [10],6.2% to 18.0%

# Reference: US12280037B2, “Method and pharmaceutical composition for treating or preventing trichomoniasis and uses thereof” (EVOFEM BIOSCIENCES, INC., priority 2020, dated 2025)
